Assays:
[1] = molecular target: T1, PAI-3 (Protein C inhibitor/SERPINA5) (Homo sapiens, UniProt P05154); assay: SERPIN inhibition selectivity, similar enzymatic method; type: biochemical; conditions: Ser protease: uPA
T1 sequence (P05154 26-406): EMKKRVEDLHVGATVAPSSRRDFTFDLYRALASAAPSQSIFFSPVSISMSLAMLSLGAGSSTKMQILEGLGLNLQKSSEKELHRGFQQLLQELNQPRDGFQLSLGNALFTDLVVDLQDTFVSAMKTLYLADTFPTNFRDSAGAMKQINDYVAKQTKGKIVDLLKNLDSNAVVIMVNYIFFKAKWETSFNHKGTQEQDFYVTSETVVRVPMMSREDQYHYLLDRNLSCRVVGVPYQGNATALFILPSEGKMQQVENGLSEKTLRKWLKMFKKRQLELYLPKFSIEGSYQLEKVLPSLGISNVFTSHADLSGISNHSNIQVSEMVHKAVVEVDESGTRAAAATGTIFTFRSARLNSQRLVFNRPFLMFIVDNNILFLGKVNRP
Experimental: (§1) Inhibitory effect of IMD-4690 on the activity of PAI-1 was measured by the direct tPA assay. Briefly, recombinant tPA and PAI-1 was mixed with IMD-4690, and then tPA substrate with fluorescent pigment (Pyr-Gly-Arg-MCA) was added in this mixture and incubated. The enzymatic activity was calculated by measuring the fluorescence. The inhibitory activity of IMD-4690 on other enzymes was measured with the similar method.

[2] = molecular target: α1-anti-trypsin (SERPINA1) (Homo sapiens, UniProt P01009); assay: as above; type: biochemical; conditions: Ser protease: Trypsin, Neu-Elastase
Experimental: as §1

Chain of α1-anti-trypsin (SERPINA1) (P01009 25-418): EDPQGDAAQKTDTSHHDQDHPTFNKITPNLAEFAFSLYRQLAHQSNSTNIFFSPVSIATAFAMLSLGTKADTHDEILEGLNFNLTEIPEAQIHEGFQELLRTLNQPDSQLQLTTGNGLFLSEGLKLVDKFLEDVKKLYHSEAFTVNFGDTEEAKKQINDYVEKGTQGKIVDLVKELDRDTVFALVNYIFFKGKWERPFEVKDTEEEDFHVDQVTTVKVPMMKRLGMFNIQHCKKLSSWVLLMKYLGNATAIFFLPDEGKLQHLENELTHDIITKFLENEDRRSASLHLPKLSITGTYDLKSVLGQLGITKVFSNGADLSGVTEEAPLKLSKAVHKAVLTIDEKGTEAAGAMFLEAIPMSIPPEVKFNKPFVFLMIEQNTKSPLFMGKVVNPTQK

SMILES: CC(C)(C)c1ccc(Oc2cc(-c3ccc(OC(F)(F)F)cc3)ccc2OCC(=O)O)cc1 [IMD-4690, 2-[[3-(4-tert-Butylphenoxy)-4'-(trifluoromethoxy) [1,1'-biphenyl]-4-yl]oxy] acetic acid]
- IC50 [1]: > 25 µM
- IC50 [2]: > 25 µM

— publication PMC4364779, “IMD-4690, a Novel Specific Inhibitor for Plasminogen Activator Inhibitor-1, Reduces Allergic Airway Remodeling in a Mouse Model of Chronic Asthma via Regulating Angiogenesis and Remodeling-Related Mediators” (PLoS ONE, 2015)
